The results in this text go back to BindingDB's records for doi:10.1021/acschembio.5b00398 (University of Oxford, 2015).

Holding throughout (assay): EMSA
On the technique in general: Mobility shift assays separate free from complexed probe on a gel.

In assay [1] the target is Cyclin-dependent kinase 2 [A144C] (Homo sapiens, UniProt P24941, A144C). The protocol:
(§1) First, 4.5 μL of 2× kinase solution was added to 0.05 μL of compound (maximum concentration 1.8 mM in 90% DMSO and 10% H2O). To allow for possible slow association, plates with type II inhibitors were incubated for 60 min at 30 °C. The assay started after the addition of 4.5 μL of 2× peptide with ATP and was run for 60 min at 30 °C, after which 16 μL of stop solution was added (100 mM HEPES pH 7.5, 5% DMSO, 0.1% coating reagent (Caliper Lifescience) 10 mM EDTA, pH 8.0, 0.015% BRIJ35). All reactions were performed in 50 mM HEPES, pH 7.5, 1 mM DTT, 0.02% Tween 20, 0.02% BSA, 10 mM betaglycerophosphate, 0.01 mM Na3VO4, 0.6% DMSO, and 2 μM peptide.

For assay [2], the target named is Cyclin-dependent kinase 2 [F80T] (Homo sapiens, UniProt P24941, F80T). On the procedure:
as §1

Assay [3] deals with Cyclin-dependent kinase 2 [F80M] (Homo sapiens, UniProt P24941, F80M). The protocol:
as §1

Assay [4] concerns the target Cyclin-dependent kinase 2 [A144G] (Homo sapiens, UniProt P24941, A144G). On the procedure: as §1
For assay [5], the target named is Cyclin-dependent kinase 2 [C118L,A144C] (Homo sapiens, UniProt P24941, A144C/C118L). The protocol: as §1
Assay [6] concerns the target Cyclin-dependent kinase 2 [C118L] (Homo sapiens, UniProt P24941, C118L). On the procedure: as §1
For assay [7], the target named is Cyclin-dependent kinase 2 [C118I] (Homo sapiens, UniProt P24941, C118I). The protocol: as §1
The target in assay [8] is Cyclin-dependent kinase 2 (Homo sapiens, UniProt P24941). On the procedure:
as §1

Molecules are shown by their SMILES. A value given as a limit tells only on which side of the number the result lay.

Broadly, the IC50 is the concentration that gives 50% inhibition. On to `CC(=O)Nc1cc(Oc2ccc3c(C(=O)Nc4ccc(CN5CCN(C)CC5)c(C(F)(F)F)c4)cccc3c2)ncn1` [K03859 (2)], for which the IC50 in assay [1] is over 10 µM; in assay [2], 7.1 µM; in assay [3], over 10 µM; in assay [4], over 10 µM; in assay [5], over 10 µM; in assay [6] it was over 10 µM. Also, the half-inhibitory concentration (IC50) in assay [7] and in assay [8] was over 10 µM in each case.
